Results on 23 compounds are retold here after the NIST ThermoML archive (doi:10.1016/j.fluid.2006.07.015).

± gives the expanded uncertainty stated by the source.

For data set [1] the following is noted: Crystal; visual observation.
The nature of data set [2]: activity coefficient (dimensionless); of the first substance listed, at infinite dilution; xn = mol fraction of the nth substance listed. As to conditions: 101 kPa, Liquid, Chromatography, x1 = 0.

On to `CCCCCCCCCCCCCCCCCCC(CCCCCCCCCCCCCCCCCC)CCCCC(CCCCCCCCCCCCCCCCCC)CCCCCCCCCCCCCCCCCC` [19,24-dioctadecyldotetracontane], for which the Normal melting temperature in data set [1] amounted to 72 ± 6 °C.

On to `CCCCCCCCCCCC` [dodecane] + CCCCCCCCCCCCCCCCCCC(CCCCCCCCCCCCCCCCCC)CCCCC(CCCCCCCCCCCCCCCCCC)CCCCCCCCCCCCCCCCCC, for which the activity coefficient in data set [2] (373.15 K) came out at 0.456 ± 0.033; in data set [2] (388.15 K), 0.457 ± 0.033; in data set [2] (403.15 K) it was 0.459 ± 0.033; in data set [2] (418.15 K) it was 0.46 ± 0.033; in data set [2] (433.15 K), 0.462 ± 0.033.

For `CCc1ccccc1` [ethylbenzene] + CCCCCCCCCCCCCCCCCCC(CCCCCCCCCCCCCCCCCC)CCCCC(CCCCCCCCCCCCCCCCCC)CCCCCCCCCCCCCCCCCC, the activity coefficient in data set [2] (373.15 K) was 0.314 ± 0.035; in data set [2] (388.15 K), 0.315 ± 0.035; in data set [2] (403.15 K) it was 0.313 ± 0.035; in data set [2] (418.15 K), 0.304 ± 0.035; in data set [2] (433.15 K), 0.304 ± 0.035.

For `CCCCCCC` [heptane] + CCCCCCCCCCCCCCCCCCC(CCCCCCCCCCCCCCCCCC)CCCCC(CCCCCCCCCCCCCCCCCC)CCCCCCCCCCCCCCCCCC, the activity coefficient in data set [2] (373.15 K) came to 0.361 ± 0.035; in data set [2] (388.15 K), 0.363 ± 0.035; in data set [2] (403.15 K), 0.365 ± 0.035; in data set [2] (418.15 K) it was 0.367 ± 0.034; in data set [2] (433.15 K), 0.37 ± 0.03.

`C=CCCCC` [hex-1-ene] + CCCCCCCCCCCCCCCCCCC(CCCCCCCCCCCCCCCCCC)CCCCC(CCCCCCCCCCCCCCCCCC)CCCCCCCCCCCCCCCCCC: the activity coefficient is 0.354 ± 0.035 in data set [2] (373.15 K); 0.355 ± 0.035 in data set [2] (388.15 K); 0.356 ± 0.035 in data set [2] (403.15 K); 0.357 ± 0.035 in data set [2] (418.15 K); 0.359 ± 0.035 in data set [2] (433.15 K).

For `CCCCCC` [hexane] + CCCCCCCCCCCCCCCCCCC(CCCCCCCCCCCCCCCCCC)CCCCC(CCCCCCCCCCCCCCCCCC)CCCCCCCCCCCCCCCCCC, the activity coefficient in data set [2] (373.15 K) turned out to be 0.344 ± 0.035; in data set [2] (388.15 K), 0.346 ± 0.035; in data set [2] (403.15 K), 0.348 ± 0.035; in data set [2] (418.15 K) it was 0.351 ± 0.035; in data set [2] (433.15 K), 0.355 ± 0.035.

On to `CCCCCCc1ccccc1` [hexylbenzene] + CCCCCCCCCCCCCCCCCCC(CCCCCCCCCCCCCCCCCC)CCCCC(CCCCCCCCCCCCCCCCCC)CCCCCCCCCCCCCCCCCC, for which the activity coefficient in data set [2] (373.15 K) is 0.397 ± 0.034; in data set [2] (388.15 K), 0.405 ± 0.034; in data set [2] (403.15 K) it was 0.401 ± 0.034; in data set [2] (418.15 K), 0.404 ± 0.034; in data set [2] (433.15 K), 0.401 ± 0.034.

As for `CC1CCCCC1` [methylcyclohexane] + CCCCCCCCCCCCCCCCCCC(CCCCCCCCCCCCCCCCCC)CCCCC(CCCCCCCCCCCCCCCCCC)CCCCCCCCCCCCCCCCCC, the activity coefficient in data set [2] (373.15 K) is 0.267 ± 0.036; in data set [2] (388.15 K), 0.273 ± 0.036; in data set [2] (403.15 K) it was 0.273 ± 0.036; in data set [2] (418.15 K), 0.272 ± 0.036; in data set [2] (433.15 K), 0.275 ± 0.036.

`c1ccc2ccccc2c1` [naphthalene] + CCCCCCCCCCCCCCCCCCC(CCCCCCCCCCCCCCCCCC)CCCCC(CCCCCCCCCCCCCCCCCC)CCCCCCCCCCCCCCCCCC: the activity coefficient in data set [2] (373.15 K) was 0.384 ± 0.034; in data set [2] (388.15 K), 0.397 ± 0.034; in data set [2] (403.15 K), 0.4 ± 0.034; in data set [2] (418.15 K), 0.392 ± 0.034; in data set [2] (433.15 K) it was 0.386 ± 0.034.

In the case of `CCCCCCCCC` [nonane] + CCCCCCCCCCCCCCCCCCC(CCCCCCCCCCCCCCCCCC)CCCCC(CCCCCCCCCCCCCCCCCC)CCCCCCCCCCCCCCCCCC, the activity coefficient came out at 0.399 ± 0.034 in data set [2] (373.15 K); 0.401 ± 0.034 in data set [2] (388.15 K); 0.403 ± 0.034 in data set [2] (403.15 K); 0.404 ± 0.034 in data set [2] (418.15 K); 0.406 ± 0.034 in data set [2] (433.15 K).

As for `C=CCCCCCC` [oct-1-ene] + CCCCCCCCCCCCCCCCCCC(CCCCCCCCCCCCCCCCCC)CCCCC(CCCCCCCCCCCCCCCCCC)CCCCCCCCCCCCCCCCCC, the activity coefficient in data set [2] (373.15 K) is 0.374 ± 0.034; in data set [2] (388.15 K) it was 0.374 ± 0.034; in data set [2] (403.15 K), 0.374 ± 0.034; in data set [2] (418.15 K), 0.375 ± 0.034; in data set [2] (433.15 K), 0.377 ± 0.034.

On to `CCCCCCCC` [octane] + CCCCCCCCCCCCCCCCCCC(CCCCCCCCCCCCCCCCCC)CCCCC(CCCCCCCCCCCCCCCCCC)CCCCCCCCCCCCCCCCCC, for which the activity coefficient amounted to 0.38 ± 0.034 in data set [2] (373.15 K); 0.381 ± 0.034 in data set [2] (388.15 K); 0.382 ± 0.034 in data set [2] (403.15 K); 0.384 ± 0.034 in data set [2] (418.15 K); 0.386 ± 0.034 in data set [2] (433.15 K).

`CCCCC` [pentane] + CCCCCCCCCCCCCCCCCCC(CCCCCCCCCCCCCCCCCC)CCCCC(CCCCCCCCCCCCCCCCCC)CCCCCCCCCCCCCCCCCC: the activity coefficient in data set [2] (373.15 K) was 0.336 ± 0.035; in data set [2] (388.15 K), 0.338 ± 0.035; in data set [2] (403.15 K), 0.341 ± 0.035; in data set [2] (418.15 K), 0.345 ± 0.035; in data set [2] (433.15 K), 0.349 ± 0.035.

Regarding `CCCCCc1ccccc1` [pentylbenzene] + CCCCCCCCCCCCCCCCCCC(CCCCCCCCCCCCCCCCCC)CCCCC(CCCCCCCCCCCCCCCCCC)CCCCCCCCCCCCCCCCCC, the activity coefficient in data set [2] (373.15 K) came out at 0.378 ± 0.034; in data set [2] (388.15 K), 0.385 ± 0.034; in data set [2] (403.15 K) it was 0.381 ± 0.034; in data set [2] (418.15 K) it was 0.38 ± 0.034; in data set [2] (433.15 K), 0.376 ± 0.034.

In the case of `CCCc1ccccc1` [propylbenzene] + CCCCCCCCCCCCCCCCCCC(CCCCCCCCCCCCCCCCCC)CCCCC(CCCCCCCCCCCCCCCCCC)CCCCCCCCCCCCCCCCCC, the activity coefficient in data set [2] (373.15 K) is 0.336 ± 0.035; in data set [2] (388.15 K), 0.339 ± 0.035; in data set [2] (403.15 K) it was 0.336 ± 0.035; in data set [2] (418.15 K), 0.331 ± 0.035; in data set [2] (433.15 K), 0.33 ± 0.035.

In the case of `CCCCCCCCCCCCCC` [tetradecane] + CCCCCCCCCCCCCCCCCCC(CCCCCCCCCCCCCCCCCC)CCCCC(CCCCCCCCCCCCCCCCCC)CCCCCCCCCCCCCCCCCC, the activity coefficient in data set [2] (373.15 K) came to 0.492 ± 0.033; in data set [2] (388.15 K), 0.493 ± 0.033; in data set [2] (403.15 K) it was 0.494 ± 0.033; in data set [2] (418.15 K), 0.495 ± 0.033; in data set [2] (433.15 K) it was 0.495 ± 0.033.

In the case of `Cc1ccccc1` [toluene] + CCCCCCCCCCCCCCCCCCC(CCCCCCCCCCCCCCCCCC)CCCCC(CCCCCCCCCCCCCCCCCC)CCCCCCCCCCCCCCCCCC, the activity coefficient came out at 0.284 ± 0.036 in data set [2] (373.15 K); 0.284 ± 0.036 in data set [2] (388.15 K); 0.282 ± 0.036 in data set [2] (403.15 K); 0.278 ± 0.036 in data set [2] (418.15 K); 0.275 ± 0.036 in data set [2] (433.15 K).

Turning to `C[C@@H]1CCCC[C@H]1C` [trans-1,2-dimethylcyclohexane] + CCCCCCCCCCCCCCCCCCC(CCCCCCCCCCCCCCCCCC)CCCCC(CCCCCCCCCCCCCCCCCC)CCCCCCCCCCCCCCCCCC, the activity coefficient was 0.28 ± 0.036 in data set [2] (373.15 K); 0.287 ± 0.036 in data set [2] (388.15 K); 0.29 ± 0.036 in data set [2] (403.15 K); 0.288 ± 0.036 in data set [2] (418.15 K); 0.295 ± 0.036 in data set [2] (433.15 K).

As to `C[C@H]1CC[C@H](C)CC1` [trans-1,4-dimethylcyclohexane] + CCCCCCCCCCCCCCCCCCC(CCCCCCCCCCCCCCCCCC)CCCCC(CCCCCCCCCCCCCCCCCC)CCCCCCCCCCCCCCCCCC, the activity coefficient in data set [2] (373.15 K) came to 0.288 ± 0.036; in data set [2] (388.15 K) it was 0.295 ± 0.036; in data set [2] (403.15 K), 0.297 ± 0.036; in data set [2] (418.15 K), 0.298 ± 0.036; in data set [2] (433.15 K) it was 0.299 ± 0.036.

In the case of `C1CC[C@@H]2CCC[C@H]2C1` [trans-bicyclo[4.3.0]nonane] + CCCCCCCCCCCCCCCCCCC(CCCCCCCCCCCCCCCCCC)CCCCC(CCCCCCCCCCCCCCCCCC)CCCCCCCCCCCCCCCCCC, the activity coefficient amounted to 0.267 ± 0.036 in data set [2] (373.15 K); 0.278 ± 0.036 in data set [2] (388.15 K); 0.276 ± 0.036 in data set [2] (403.15 K); 0.273 ± 0.036 in data set [2] (418.15 K); 0.277 ± 0.036 in data set [2] (433.15 K).

`C1CC[C@H]2CCCC[C@@H]2C1` [trans-decahydronaphthalene] + CCCCCCCCCCCCCCCCCCC(CCCCCCCCCCCCCCCCCC)CCCCC(CCCCCCCCCCCCCCCCCC)CCCCCCCCCCCCCCCCCC: the activity coefficient in data set [2] (373.15 K) was determined as 0.268 ± 0.036; in data set [2] (388.15 K), 0.279 ± 0.036; in data set [2] (403.15 K), 0.283 ± 0.036; in data set [2] (418.15 K), 0.28 ± 0.036; in data set [2] (433.15 K) it was 0.287 ± 0.036.

For `CCCCCCCCCCCCC` [tridecane] + CCCCCCCCCCCCCCCCCCC(CCCCCCCCCCCCCCCCCC)CCCCC(CCCCCCCCCCCCCCCCCC)CCCCCCCCCCCCCCCCCC, the activity coefficient is 0.479 ± 0.033 in data set [2] (373.15 K); 0.479 ± 0.033 in data set [2] (388.15 K); 0.479 ± 0.033 in data set [2] (403.15 K); 0.48 ± 0.033 in data set [2] (418.15 K); 0.481 ± 0.033 in data set [2] (433.15 K).

Turning to `CCCCCCCCCCC` [undecane] + CCCCCCCCCCCCCCCCCCC(CCCCCCCCCCCCCCCCCC)CCCCC(CCCCCCCCCCCCCCCCCC)CCCCCCCCCCCCCCCCCC, the activity coefficient in data set [2] (373.15 K) is 0.436 ± 0.033; in data set [2] (388.15 K), 0.438 ± 0.033; in data set [2] (403.15 K), 0.44 ± 0.033; in data set [2] (418.15 K) it was 0.442 ± 0.033; in data set [2] (433.15 K), 0.444 ± 0.033.
